Reference: patent US12433863B2, “Pharmaceutical compositions and uses directed to lysosomal storage disorders” (INTRABIO LIMITED, priority 2016, dated 2025)

Tests used:
[1] = system: Npc1^−/− (BALB/cNctr-Npc1^m1N/J) mouse; test: In vivo mouse study in Npc1-/- mouse model of NPC (coat, weight, CatWalk gait, open field motor function, lifespan)
Protocol: Separate groups of Npc1^-/- and Npc1^+/+ mice were left untreated, as controls. […] Animals were weighed twice a week. Weights were averaged (mean) across all mice in each group and compared. Gait analysis was performed on mice at eight weeks of age using a CatWalk® 15.0 system according to manufacturer's instructions (Noldus, Nottingham, UK). Five runs were recorded per animal. CatWalk® parameters measured were: • 1. Stand Mean: average duration (s) of paws in contact with glass plate; • 2. Step Cycle: duration (s) between two consecutive contacts of the same paw; • 3. Duty Cycle: percentage of time paws in contact with plate compared with time to complete a step cycle; • 4. Step Sequence (AB): percentage of time spent walking in LF-RH-RF-LH alternating pattern (LF: left front; RH: right hind; RF: right front; LH left hind); • 5. Cadence: step per seconds in a trial; • 6. Diagonal Support: percentage of time with simultaneous contact of diagonal paws with the glass plate (RF&LH or RH&LF). Motor Function Analysis Motor function analysis was performed on mice at eight and nine weeks of age using an Open Field Activity Monitor according to manufacturer's instructions (Linton Instruments, Amlogger Software). Each mouse was placed in a plastic cage with bedding and analysed for five minutes. Rears were counted manually. Motor function parameters measured were: • 1. Centre Rearing: mice rearing on hind legs unsupported; • 2. Rearing: mice rearing on hind legs with and without the support of cage walls; • 3. Activity: regular movement of the animal including walks; • 4. Front to Back (FR) count: movement of the animal from front to back of the cage; • 5. Active Time: duration (s/min) of activeness regardless of movement; • 6. Mobile Time: duration (s/min) of mobility; • 7. Rearing Time: duration of any rearing.

[2] = system: Tay-Sachs disease patient fibroblasts; test: Glycosphingolipid (GSL) levels by HPLC in Tay-Sachs disease patient fibroblasts; assay type: cell-based, human; conditions: 1 mM for 6 days, p<0.05
[3] = system: AB variant of Tay-Sachs disease patient fibroblasts; test: Glycosphingolipid (GSL) levels by HPLC in AB variant of Tay-Sachs disease patient fibroblasts; assay type: cell-based, human; conditions: 1 mM for 6 days
[4] = system: patients genetically diagnosed with Tay-Sachs disease; test: Case studies of Tay-Sachs disease patients (SARA, SCAFI, MoCA, mRDS, EQ-5D-5L); assay type: in vivo, human
From the text: For example, to evaluate overall neurological status, mDRS, a four-domain scale (ambulation, manipulation, language and swallowing), may be applied. Cerebellar function may be evaluated using SARA, an eight-item clinical rating scale (gait, stance, sitting, speech, fine motor function and taxis; range 0-40, where 0 is the best neurological status and 40 the worst), and SCAFI, comprising the 8-m-Walking-Time (8MW; performed by having patients walking twice as quickly as possible from one line to another excluding turning), 9-Hole-Peg-Test (9HPT) and the number of “PATA” repetitions over 10 s. Subjective impairment and quality of life may be evaluated using the EQ-5D-5L questionnaire and VAS. To assess ocular motor function, 3-dimensional videooculography (EyeSeeCam) may be used to measure the peak velocity of saccades, gain of smooth pursuit, peak slow phase velocity of gaze-evoked nystagmus (gaze-holding function), peak slow phase velocity of optokinetic nystagmus, and gain of horizontal vestibulo-ocular reflex. To evaluate the cognitive state, WAIS-R or WISC-IV, and MoCA, assessing different cognitive domains, including attention and concentration, executive functions, memory, language, visuoconstructional skills, conceptual thinking, calculations, and orientation with a maximum of 30 points and a cut-off score of 26, may be used. The skilled person will know how to perform these and other such tests.
In particular, the patient was not able to stand or walk, could do single steps with strong support, had distinct postural instability, ocular movement disorder, dysphagia and dysarthria, and mild cognitive function disorder.
(§1) Before treatment was commenced, examination of the patient indicated a Scale for Assessment and Rating of Ataxia (SARA) score of 15.5/40. In addition, results from the patient's Spinocerebellar Ataxia Functional Index (SCAFI) analysis were: • Mean 8-meters Walking Test (8MW): 21.6 s • MW 9-Hole Pegboard Test Dominant (9HPTD) (right): 48.3 s • MW 9-Hole Pegboard Test Non-Dominant (9HPTND): 44.9 s • MW PATA Word Test: 20 • Montreal Cognitive Assessment (MoCA): 18/30
The day following this examination, the patient was started on therapy with acetyl-leucine, at a dose of 3 g per day for the first week, followed by a dose of 5 g per day for the second week onwards.
In particular, walking was not possible without support, and the patient suffered from dysphagia and speech disorder, ocular movement disorder, and mild cognitive function disorder.
as §1, with “10.5/40.” for “15.5/40.”, “12.5” for “21.6”, “21.5” for “48.3”, “35.5” for “44.9”, “18” for “20”, “21/30” for “18/30”
The day of the examination, the patient was started on therapy with acetyl-leucine at a dose of 3 g per day for the first week, followed by a dose of 5 g per day for the second week onwards.
The patient in this case study was a person who was genetically diagnosed with Tay-Sachs disease and who had epileptic cramps (tonic-clonic, about 10 seconds, self-limiting) almost every day before falling asleep, ocular movement disorder, anarthria, distinct problems in cognitive function and concentration (neurological examination was not possible), was not able to stand or walk by themself, and was very limited in daily activities (eating, washing or dressing themself was not possible).
Before treatment was commenced, examination of the patient indicated a Scale for Assessment and Rating of Ataxia (SARA) score of 36/40, a mRDS score of 18/24, a EQ-5D-5L visual scale of 50, and a 8MWT of 18.1 (only with strong support). […]

[5] = system: patients with cerebellar ataxia; conditions: cited from earlier work

With `CC(=O)NC(CC(C)C)C(=O)O` (racemic) [acetyl-DL-leucine] the “Delay until display of disease symptoms versus untreated Npc1-/- mice” value ([1]; Npc1-/- mice treated from weaning) was “two”, the “Delay of weight loss symptoms compared to the untreated group” value ([1]; Npc1-/- mice, 0.1 g/kg from weaning) was “two” and the “Gait properties (CatWalk) compared to untreated littermates” value ([1]; Npc1-/- mice, 0.1 g/kg from weaning, eight weeks of age) was “significantly improved gait”. The “Motor function properties (Open Field Activity Monitor) compared to untreated littermates” value ([1]; Npc1-/- mice, 0.1 g/kg from weaning, nine weeks of age) was “significantly improved motor function”, the Coat condition ([1]; Npc1-/- mice, 0.1 g/kg in chow from weaning, nine weeks of age) was “smooth and glossy coat” and the Lifespan ([1]; Npc1-/- mouse, 0.1 g/kg from 3 weeks of age) was “small but statistically significant increase in lifespan”. For the same compound, the “GSL levels (GSL storage)” value [2] was “decrease was statistically significant”, the “GSL levels (GSL storage)” value [3] was “trend towards decreased GSL levels” and the “Overall change in symptoms” value ([4]; Patient 1) was “improvement in symptoms”. For the same compound, the SARA ([4]; Patient 1, 3 g then 5 g per day, after 4 months) was 17/40, the MoCA ([4]; Patient 1, after 4 months) was 22/30 and the Clinical re-examination findings ([4]; Patient 1, after four months) was “stable condition with slightly improved cognitive function but had deterioration of stance, gait and fine motor function”. The Clinical re-examination findings ([4]; Patient 1, after one month) was “improved fine motor skills and reduced hand tremor”, the MoCA ([4]; Patient 1, after one month) was 21/30 and the SARA ([4]; Patient 2, 3 g then 5 g per day, after one month) was 5/40. For the same compound, the Clinical re-examination findings ([4]; Patient 2, after one month) was “increased enunciation, improved postural stability, and enhanced cognitive function”, the MoCA ([4]; Patient 2, after one month) was 25/30 and the SARA ([4]; Patient 3, 1.5 g then 3 g per day, after one month) was 33/40. The “Benefit in cerebellar ataxia, another case series” value ([5]; Pelz et al. 2015) was “did not find benefit”, the “Temporal gait variability, quantitative gait analysis” value ([5]; Schniepp et al. 2015) was “improved temporal gait variability” and the “Cerebellar ataxia symptoms, case series” value ([5]; Strupp et al. 2013) was “symptomatic improvement of cerebellar ataxia”.
